Values quoted from earlier work as cited in patent publication US20080112918A1, “Method for treating gout and binding uric acid” (priority 2001, published 2008).

Conditions: administered orally; treatment of gouty arthritis

COc1cc2c(c(OC)c1OC)-c1ccc(OC)c(=O)cc1[C@@H](NC(C)=O)CC2 [colchicine]
people who cannot tolerate the drug because of side effects: 80%
